Legend:
[1] = test system: Erk; assay: InIB-induced Erk phosphorylation in ASs6 cells; type: cell-based, rat; settings: peptide 100 ng/ml before InIB
Description: (§1) AS cells or ASs6 cells were induced with InIB as indicated (A) and ASs6 cells in addition with a CD44v6 14-mer peptide having SEQ ID NO: 1 or an unrelated (control) peptide (B). Erk phosphorylation (A,B) or c-Met phosphorylation (B) was determined. In (C), HeLa cells were induced either with HGF or InIB for 5 min at 37° C. CD44v6 was immunoprecipitated from the lysates and a Western Blot was performed using CD44v6 and c-Met antibodies as indicated. For control, an IgG antibody was used. The numbers reflect-fold induction as determined by densitometric scanning (Image J program).
(§2) The human colon adenocarcinoma cell lines HT29 and the human cervix carcinoma cell line HeLa (American tissue culture collection, ATCC; Wesel, Germany. Accession no: CCL-2) were grown in Dulbecco's modified Eagle's medium (DMEM; Invitrogen, Karlsruhe, Germany) supplemented with 10% fetal calf serum (FCS; PAA Cölbe, Germany). The rat pancreatic carcinoma cell line BSp73AS and its transfectant BSp73ASs6 were grown in RMPI (Invitrogen, Karlsruhe, Germany) plus 10% FCS.
(§3) In all experiments cells were induced with 1 nM of InIB where indicated. Induction was performed for 5 min at 37° C. Blocking experiments were performed by incubating the CD44v6 14-mer peptide having for example SEQ ID NO: 2 or SEQ ID NO: 1 (100 ng/ml) or the control peptide (100 ng/ml) for 30 min at 37° C. prior to induction with InIB. […]

[2] = test system: c-Met; assay: InIB-induced c-Met phosphorylation in ASs6 cells; type: cell-based, rat; settings: peptide 100 ng/ml before InIB
Description: as §1, §2, §3

[3] = test system: HeLa cells; assay: Latex bead invasion assay (InIB-coated beads); type: cell-based, human; settings: HeLa cells preincubated with peptide
Description: Control beads or beads coated with InIB (see experimental procedures) were incubated with HeLa cells. Cells were pretreated with a CD44v6 peptide having SEQ ID NO: 2 or a control peptide for one hour as indicated. Extracellular beads bind to a Cy3-labelled antibody and are stained red in immunofluorescence microscopy. In phase contrast microscopy both extracellular and intracellular beads are detected. The number of internalized beads (black) was counted in approximately a thousand cells and shown as intracellular beads/100 cells in the graph. The results are expressed as means±standard deviation of three independent experiments.
In1B-dependent c-Met and Erk phosphorylation was measured in HeLa cells transiently transfected with a control vector or a vector coding for a truncated version of ezrin deprived of the actin binding domain (ezΔABD or DN Ezrin). In these cells also the uptake of latex beads was determined as described in FIG. 4.
Coating of the beads with InIB was performed as is known in the art. Briefly, 25 μl of latex beads (4×10^8 beads/ml, Dynabeads M-450, Dynal, Invitrogen, Karlsruhe, Germany) were coated with goat anti-mouse IgG and then incubated with 0.5 ml of hybridoma cell supernatant of monoclonal anti-InIB antibody for 2 h at 4° C. […]

[4] = test system: HT29 cells; assay: Scattering assay (InIB-induced); type: cell-based, human; settings: InIB 1 nM 48 h, antibody 100 μg/ml or peptide 100 ng/ml
Description: Scattering of HT29 cells was determined after treatment with InIB alone or together with a control peptide or a CD44v6 peptide or antibody as indicated. The magnification used was ×20.
HT29 cells were seeded at a concentration of 3×10^5 cells/well in a 6-well plate. They were then incubated with InIB (1 nM) for 48 h at 37° C. For the blocking experiments, CD44 anti-v6 antibodies (Biwa; 100 μg/ml) or a CD44v6 peptide (100 ng/ml) were added before addition of InIB. Pictures were taken using a phase contrast microscope 48 h after induction.

[5] = test system: Erk; assay: InIB-induced Erk phosphorylation in HeLa and HT29 cells; type: cell-based, human; settings: peptide 100 ng/ml 30 min before InIB 1 nM 5 min
Description: (§4) HeLa cells were induced with InIB (A) at a concentration of 1 nM for 5 min at 37° C. Pretreatment with a control peptide or a CD44v6 14-mer peptide having SEQ ID NO: 2 at a concentration of 100 ng/ml for 30 min was performed when indicated. Phosphorylation of c-Met and of Erk were measured as described in experimental procedures. The same experiments were performed with the HT29 cells (B). (C) HeLa cells were transfected with two different siRNA (v6-1 and v6-2, described in experimental procedures) to downregulate CD44v6 and with a control siRNA. 48 h after transfection, cells were starved for additional 24 h. InIB-induced c-Met and Erk phosphorylation were measured. The expression of CD44v6 was detected by Western Blot analysis. The numbers reflect-fold induction as determined by densitometric scanning (Image J program).
as §2
(§5) In all experiments cells were induced with 1 nM of InIB where indicated. […]

[6] = test system: c-Met; assay: InIB-induced c-Met phosphorylation in HeLa and HT29 cells; type: cell-based, human; settings: peptide 100 ng/ml 30 min before InIB 1 nM 5 min
Description: as §4, §2, §5

Substance	InIB-induced Erk phosphorylation [1]	InIB-induced c-Met phosphorylation [2]	entry of InIB-coated beads [3]	entry of InIB-coated beads blocked [3] [%]	InIB-induced scattering [4]	downstream signaling monitored by Erk activation [5]	InIB-induced activation of c-Met [6]
CD44v6 peptide having SEQ ID NO:1: CD44v6 14-mer peptide having SEQ ID NO: 1, used on rat ASs6 cells (KEKWFENEWQGKNP; listed as Rattus norvegicus)	abrogated	abrogated					
KEQWFGNRWHEGYR (listed as Homo sapiens) [human CD44v6 14-mer peptide]			drastic decrease	~100	blocked	inhibited	completely abrogated

— US8933017B2, “CD44V6 peptides as inhibitors of bacterial infections” (Karlsruher Institut fur Technologie, priority 2009, dated 2015)
